The values that follow come from ChEMBL document CHEMBL1201862, “PubChem BioAssay data set” (2004).

Calls of active or inactive are those of the source.

The target of assay [1] is T1, Voltage-gated N-type calcium channel alpha-1B subunit/Amyloid beta A4 precursor protein-binding family A member 1 (Homo sapiens, UniProt Q00975+Q02410). The experiment in a line: disruptors of Mint-PDZ/N-type channel peptide interaction – biochemical, HTRF, SAR follow-up (AID 2489). The assay is classed as functional.
Assay [2] deals with T1, Voltage-gated N-type calcium channel alpha-1B subunit/Amyloid beta A4 precursor protein-binding family A member 1. The experiment in a line: disruptors of Mint-PDZ/N-type channel peptide interaction – biochemical, HTRF, set 2, SAR follow-up (AID 434980). The assay is classed as functional.
In the next assay the target is X-box-binding protein 1 (Homo sapiens, UniProt P17861). In kind it is functional, Cricetulus griseus.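 Further: confirmatory dose-response counter-screen serving a CHOP assay.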
Assay [3] concerns the target Endoplasmic reticulum aminopeptidase 1 (Homo sapiens, UniProt Q9NZ08). The experiment in a line: inhibition of human ERAP1 enzyme activity – biochemical, cherry-pick, set 2, plate reader, dose response (AID 743314).
For the next assay, the target named is Nonstructural protein 1 (Influenza A virus, UniProt Q194T2). The assay is classed as functional, Influenza A virus (A/California/07/2009(H1N1)).
The nature of assay [4]: reduction of Shn3 3'UTR-driven luciferase in osteoblasts – cell-based, Clone20 osteoblasts, firefly luciferase, cherry-picked, dose response (AID 624132).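 Further: firefly luciferase luminescence from reporter carrying the Shn3 3'UTR in osteoblasts.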 The assay is classed as functional.
Assay [5] has as its target T2, Rac GTPase-activating protein 1 (Homo sapiens, UniProt Q9H0H5).
T2 sequence (Q9H0H5 whole entry): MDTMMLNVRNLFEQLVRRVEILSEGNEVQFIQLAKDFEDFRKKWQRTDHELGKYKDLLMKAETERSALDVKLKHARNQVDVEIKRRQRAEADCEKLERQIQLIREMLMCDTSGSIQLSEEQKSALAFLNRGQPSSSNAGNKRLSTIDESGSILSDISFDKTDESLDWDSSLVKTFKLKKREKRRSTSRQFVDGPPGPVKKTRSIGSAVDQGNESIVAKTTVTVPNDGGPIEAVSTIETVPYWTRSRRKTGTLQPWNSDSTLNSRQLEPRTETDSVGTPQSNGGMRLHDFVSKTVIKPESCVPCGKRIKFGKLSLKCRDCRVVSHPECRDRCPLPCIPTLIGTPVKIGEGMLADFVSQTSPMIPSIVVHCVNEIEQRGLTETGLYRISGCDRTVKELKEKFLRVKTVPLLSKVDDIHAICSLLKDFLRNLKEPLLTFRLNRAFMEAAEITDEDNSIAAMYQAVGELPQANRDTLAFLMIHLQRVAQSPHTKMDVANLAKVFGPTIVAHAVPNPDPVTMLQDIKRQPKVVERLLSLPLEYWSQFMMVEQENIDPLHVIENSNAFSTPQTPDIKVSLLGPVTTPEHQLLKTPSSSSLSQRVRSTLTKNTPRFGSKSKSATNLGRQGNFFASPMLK
In words: blockers of MgcRacGAP-driven Rac1 GTP hydrolysis – biochemical, ADP Hunter fluorescence, primary and confirmatory, confirmation (AID 624330). In kind it is functional.

Assay [6] is described as follows: non-specific 3'UTR reporter inhibition in Clone20-Shn3RL – cell-based, Renilla luciferase, cherry-picked, counter-screen for Shn3 inhibitor project, dose response (AID 624133). The assay is classed as functional.
Assay [7] can be described thus: Cytotoxicity screening for potential Inhibitors of Bacterial Capsule Biogenesis. [Related pubchem assays (depositor defined):AID488970]. In kind it is functional.
Assay [8] can be described thus: loss of viability in HepG2 cells – cell-based, CellTiter-Glo, cherry-picked, cytotoxicity control for Shn3 inhibitor project, dose response (AID 624134). The assay is classed as functional.
The nature of assay [9]: inhibition of mouse IRAP aminopeptidase activity – biochemical, Leu-AMC fluorescence, cherry-picked samples, set 2, selectivity assay for ERAP1 modulator project, dose response (AID 743340).
Assay [10] is described as follows: viability loss in HeLa cells – cytotoxicity control for MgcRacGAP inhibitor project, dose response (AID 624300). The assay is classed as functional.
The target of assay [11] is T3, DNA repair protein RAD52 homolog (Homo sapiens, UniProt P43351).
T3 sequence (P43351 whole entry): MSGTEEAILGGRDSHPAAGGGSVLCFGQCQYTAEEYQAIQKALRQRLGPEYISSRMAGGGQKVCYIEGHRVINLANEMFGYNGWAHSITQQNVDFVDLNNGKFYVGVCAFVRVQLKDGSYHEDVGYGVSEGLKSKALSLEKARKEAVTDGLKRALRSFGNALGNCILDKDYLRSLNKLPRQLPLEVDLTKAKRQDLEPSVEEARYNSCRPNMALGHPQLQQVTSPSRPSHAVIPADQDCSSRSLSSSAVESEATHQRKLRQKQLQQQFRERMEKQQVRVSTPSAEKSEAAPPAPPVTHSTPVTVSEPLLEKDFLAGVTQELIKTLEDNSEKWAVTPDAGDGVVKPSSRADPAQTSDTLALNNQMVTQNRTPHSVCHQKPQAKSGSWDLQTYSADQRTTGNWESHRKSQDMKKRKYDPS
The assay is classed as functional, biochemical.

The target of assay [12] is Protein phosphatase methylesterase 1 (Homo sapiens, UniProt Q9Y570). The experiment in a line: endogenous PME-1 and serine hydrolase inhibition – cell lysate, mouse brain cytosol, FP-rhodamine, gel ABPP, selectivity assay for PME-1 inhibitor project, dose response, panel member PME-1 Assay Panel member description: Inhibition of endogenously expressed PME-1 (AID 2366).

In assay [13] the target is Intestinal-type alkaline phosphatase (Homo sapiens, UniProt P09923). The experiment in a line: Dose Response confirmation of uHTS hits from a small molecule inhibitors of human intestinal alkaline phosphatase via a luminescent assay. [Related pubchem assays (depositor defined):AID2544, AID2574]. In kind it is functional.
Assay [14] has as its target T4, Short transient receptor potential channel 4 (Mus musculus, UniProt Q9QUQ5).
T4 sequence (Q9QUQ5 whole entry): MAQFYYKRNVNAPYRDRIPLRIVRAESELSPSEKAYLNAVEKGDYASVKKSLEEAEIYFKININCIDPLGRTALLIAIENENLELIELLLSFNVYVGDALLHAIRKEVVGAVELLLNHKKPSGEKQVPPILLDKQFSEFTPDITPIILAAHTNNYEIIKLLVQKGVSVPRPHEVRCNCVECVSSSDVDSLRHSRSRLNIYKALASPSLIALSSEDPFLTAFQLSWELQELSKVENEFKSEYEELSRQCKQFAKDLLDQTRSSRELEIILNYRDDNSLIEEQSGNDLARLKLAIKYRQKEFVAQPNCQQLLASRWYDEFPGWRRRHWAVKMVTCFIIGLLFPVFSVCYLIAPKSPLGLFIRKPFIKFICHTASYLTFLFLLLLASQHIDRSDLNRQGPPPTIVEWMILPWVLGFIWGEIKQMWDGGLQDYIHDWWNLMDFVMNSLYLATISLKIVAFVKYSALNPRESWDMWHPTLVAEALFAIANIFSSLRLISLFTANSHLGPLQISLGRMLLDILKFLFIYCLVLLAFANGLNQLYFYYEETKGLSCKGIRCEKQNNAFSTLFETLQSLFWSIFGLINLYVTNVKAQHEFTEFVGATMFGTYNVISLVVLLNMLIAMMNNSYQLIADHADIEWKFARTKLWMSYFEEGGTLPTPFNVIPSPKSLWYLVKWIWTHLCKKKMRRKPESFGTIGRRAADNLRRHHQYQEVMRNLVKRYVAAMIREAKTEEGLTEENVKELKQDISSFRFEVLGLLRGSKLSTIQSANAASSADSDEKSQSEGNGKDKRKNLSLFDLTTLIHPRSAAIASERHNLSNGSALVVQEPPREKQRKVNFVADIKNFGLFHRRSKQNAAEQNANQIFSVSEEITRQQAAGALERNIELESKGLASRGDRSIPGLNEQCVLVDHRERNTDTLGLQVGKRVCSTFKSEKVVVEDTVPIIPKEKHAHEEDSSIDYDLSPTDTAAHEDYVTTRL
In words: block of DAMGO-driven TRPC4 calcium entry – cell-based, HEK293 TRPC4/mu-opioid, Fluo-4 calcium, dose response (AID 434942).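 Further: potency of inhibitors blocking the TRPC4 calcium response.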 In kind it is functional.

A further assay deals with ORF 73 (Human herpesvirus 8, UniProt O40947). In words: KSHV LANA DNA-binding disruption – biochemical, fluorescence polarization, cherry-picked samples, dose response (AID 504725).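 Further: fluorescence polarization of a labeled DNA duplex reporting LANA DNA binding; potency is for inhibitors that block LANA binding to the DNA.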 Set-up: species or system Human gammaherpesvirus 8.
Assay [15] addresses Dual specificity protein phosphatase 3 (Homo sapiens, UniProt P51452). The experiment in a line: inhibition constants for human DUSP3 – biochemical, colorimetric, SAR follow-up (AID 2004).
In assay [16] the target is T5, Replicative DNA helicase DnaB (Mycobacterium tuberculosis, UniProt P9WMR3).
T5 sequence (P9WMR3 whole entry): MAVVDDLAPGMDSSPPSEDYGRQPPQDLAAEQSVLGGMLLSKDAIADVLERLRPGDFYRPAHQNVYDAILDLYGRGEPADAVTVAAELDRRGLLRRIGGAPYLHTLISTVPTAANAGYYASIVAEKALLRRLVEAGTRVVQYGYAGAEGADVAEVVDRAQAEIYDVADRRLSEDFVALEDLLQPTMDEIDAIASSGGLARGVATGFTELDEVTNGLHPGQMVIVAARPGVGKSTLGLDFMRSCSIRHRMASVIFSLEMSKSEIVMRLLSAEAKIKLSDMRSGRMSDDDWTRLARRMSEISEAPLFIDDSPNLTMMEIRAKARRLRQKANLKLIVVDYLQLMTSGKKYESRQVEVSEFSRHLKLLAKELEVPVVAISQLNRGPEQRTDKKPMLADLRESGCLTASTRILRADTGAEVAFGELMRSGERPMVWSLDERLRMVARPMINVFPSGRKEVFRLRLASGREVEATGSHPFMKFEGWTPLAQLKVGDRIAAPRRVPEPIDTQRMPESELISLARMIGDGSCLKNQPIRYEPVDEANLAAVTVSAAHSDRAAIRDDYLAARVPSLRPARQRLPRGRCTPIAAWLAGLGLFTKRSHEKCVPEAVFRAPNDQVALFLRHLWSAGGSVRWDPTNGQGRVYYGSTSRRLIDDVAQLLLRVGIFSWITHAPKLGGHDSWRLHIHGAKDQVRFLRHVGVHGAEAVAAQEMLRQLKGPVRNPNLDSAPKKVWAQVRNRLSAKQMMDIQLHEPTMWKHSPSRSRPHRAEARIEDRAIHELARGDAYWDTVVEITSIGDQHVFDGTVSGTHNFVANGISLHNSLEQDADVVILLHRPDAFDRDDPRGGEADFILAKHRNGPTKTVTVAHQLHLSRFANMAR
The experiment in a line: DnaB intein splicing inhibitors, dose response, biochemical, cell-free fluorescence (AID 449749). The assay is classed as functional.

The target in another assay is T6, Protein RecA (Mycobacterium tuberculosis, UniProt P9WHJ3).
T6 sequence (P9WHJ3 whole entry): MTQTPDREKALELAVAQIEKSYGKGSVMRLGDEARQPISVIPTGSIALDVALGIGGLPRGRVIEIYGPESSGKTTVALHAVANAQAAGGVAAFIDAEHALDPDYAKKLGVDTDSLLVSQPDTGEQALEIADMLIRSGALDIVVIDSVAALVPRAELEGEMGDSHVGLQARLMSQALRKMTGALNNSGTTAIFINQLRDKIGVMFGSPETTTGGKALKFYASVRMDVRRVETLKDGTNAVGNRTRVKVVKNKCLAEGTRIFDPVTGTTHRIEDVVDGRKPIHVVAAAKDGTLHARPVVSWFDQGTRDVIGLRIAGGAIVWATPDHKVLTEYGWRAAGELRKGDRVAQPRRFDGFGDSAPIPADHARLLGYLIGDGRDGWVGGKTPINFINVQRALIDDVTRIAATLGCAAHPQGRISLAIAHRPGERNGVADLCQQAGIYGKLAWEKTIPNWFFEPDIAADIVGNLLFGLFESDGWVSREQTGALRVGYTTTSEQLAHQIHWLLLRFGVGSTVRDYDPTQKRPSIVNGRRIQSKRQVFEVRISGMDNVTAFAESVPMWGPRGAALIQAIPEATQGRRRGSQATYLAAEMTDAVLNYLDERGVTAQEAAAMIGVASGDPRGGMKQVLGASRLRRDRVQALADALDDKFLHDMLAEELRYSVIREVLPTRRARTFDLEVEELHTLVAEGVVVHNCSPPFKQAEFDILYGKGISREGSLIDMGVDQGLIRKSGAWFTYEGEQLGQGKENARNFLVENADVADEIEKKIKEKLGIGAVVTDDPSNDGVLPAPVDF
The experiment in a line: Fluorescence Cell-Free Homogeneous Dose Retest to Identify Inhibitors of RecA-Intein Splicing Activity. [Related pubchem assays (depositor defined):AID2097, AID2223, AID489010, AID492950]. In kind it is functional.

The next assay deals with Hexokinase HKDC1 (Homo sapiens, UniProt Q2TB90). The experiment in a line: inhibition of HKDC1 glucose phosphorylation – biochemical, W721R variant, dose response (AID 504729). The assay is classed as functional.

T1 sequence (Q00975 whole entry): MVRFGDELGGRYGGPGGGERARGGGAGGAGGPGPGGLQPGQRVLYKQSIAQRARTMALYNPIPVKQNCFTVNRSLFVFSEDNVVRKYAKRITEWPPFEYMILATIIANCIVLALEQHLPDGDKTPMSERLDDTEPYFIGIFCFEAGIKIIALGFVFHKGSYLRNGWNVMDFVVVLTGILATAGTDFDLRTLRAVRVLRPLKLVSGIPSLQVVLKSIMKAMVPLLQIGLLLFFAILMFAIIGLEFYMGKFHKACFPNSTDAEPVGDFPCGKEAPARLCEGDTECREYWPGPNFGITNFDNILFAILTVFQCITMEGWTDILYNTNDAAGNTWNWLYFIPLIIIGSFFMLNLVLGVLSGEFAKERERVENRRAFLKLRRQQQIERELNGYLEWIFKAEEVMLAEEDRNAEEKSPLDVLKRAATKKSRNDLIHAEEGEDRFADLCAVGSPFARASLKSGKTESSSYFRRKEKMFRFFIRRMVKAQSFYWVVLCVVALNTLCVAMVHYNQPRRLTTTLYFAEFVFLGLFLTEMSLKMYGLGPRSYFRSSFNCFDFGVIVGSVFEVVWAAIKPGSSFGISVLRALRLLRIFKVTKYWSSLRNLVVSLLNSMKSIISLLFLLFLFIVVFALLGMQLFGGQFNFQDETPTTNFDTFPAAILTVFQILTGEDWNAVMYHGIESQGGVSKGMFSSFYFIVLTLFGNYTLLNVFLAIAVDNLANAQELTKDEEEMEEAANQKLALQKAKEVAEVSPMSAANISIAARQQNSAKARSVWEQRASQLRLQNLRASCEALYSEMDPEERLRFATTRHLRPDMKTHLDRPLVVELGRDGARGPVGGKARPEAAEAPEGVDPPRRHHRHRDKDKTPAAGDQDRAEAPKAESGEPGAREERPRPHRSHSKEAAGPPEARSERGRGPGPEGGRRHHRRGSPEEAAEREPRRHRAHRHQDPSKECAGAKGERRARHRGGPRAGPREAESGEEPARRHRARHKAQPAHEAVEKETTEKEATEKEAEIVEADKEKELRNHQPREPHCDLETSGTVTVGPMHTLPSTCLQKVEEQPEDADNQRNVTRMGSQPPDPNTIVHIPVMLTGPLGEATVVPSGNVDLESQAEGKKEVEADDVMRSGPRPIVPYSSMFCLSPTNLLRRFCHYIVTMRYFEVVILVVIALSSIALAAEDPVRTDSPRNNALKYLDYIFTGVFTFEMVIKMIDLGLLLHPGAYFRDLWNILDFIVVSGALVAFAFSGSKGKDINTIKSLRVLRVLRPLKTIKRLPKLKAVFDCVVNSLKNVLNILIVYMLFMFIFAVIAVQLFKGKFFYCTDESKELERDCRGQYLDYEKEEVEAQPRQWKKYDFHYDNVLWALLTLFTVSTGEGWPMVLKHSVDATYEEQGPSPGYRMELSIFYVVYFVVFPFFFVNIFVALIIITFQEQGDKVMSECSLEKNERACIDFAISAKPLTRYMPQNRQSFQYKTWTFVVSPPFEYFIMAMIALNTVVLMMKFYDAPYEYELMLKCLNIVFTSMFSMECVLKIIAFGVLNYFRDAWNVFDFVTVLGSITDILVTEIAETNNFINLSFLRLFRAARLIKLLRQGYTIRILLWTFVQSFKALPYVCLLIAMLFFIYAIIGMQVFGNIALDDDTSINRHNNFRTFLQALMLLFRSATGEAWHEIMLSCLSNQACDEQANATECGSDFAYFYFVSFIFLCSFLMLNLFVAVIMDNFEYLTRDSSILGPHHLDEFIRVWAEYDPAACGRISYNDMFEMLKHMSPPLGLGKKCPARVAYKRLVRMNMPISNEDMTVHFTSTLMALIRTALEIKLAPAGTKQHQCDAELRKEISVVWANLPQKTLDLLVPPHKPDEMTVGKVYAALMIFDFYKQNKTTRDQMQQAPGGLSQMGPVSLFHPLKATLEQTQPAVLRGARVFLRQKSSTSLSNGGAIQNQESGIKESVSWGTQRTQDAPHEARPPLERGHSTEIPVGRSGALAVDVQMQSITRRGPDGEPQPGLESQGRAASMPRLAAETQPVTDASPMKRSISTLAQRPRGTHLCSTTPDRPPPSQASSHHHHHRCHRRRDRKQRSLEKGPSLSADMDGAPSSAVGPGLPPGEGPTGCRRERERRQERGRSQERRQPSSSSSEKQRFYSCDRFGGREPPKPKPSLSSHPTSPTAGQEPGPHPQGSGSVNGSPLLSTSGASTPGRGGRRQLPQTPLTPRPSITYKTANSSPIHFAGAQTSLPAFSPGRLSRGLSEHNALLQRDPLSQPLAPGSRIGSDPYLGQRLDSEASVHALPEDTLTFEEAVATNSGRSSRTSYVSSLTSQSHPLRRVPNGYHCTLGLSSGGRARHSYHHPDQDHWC
T1 sequence (Q02410 whole entry): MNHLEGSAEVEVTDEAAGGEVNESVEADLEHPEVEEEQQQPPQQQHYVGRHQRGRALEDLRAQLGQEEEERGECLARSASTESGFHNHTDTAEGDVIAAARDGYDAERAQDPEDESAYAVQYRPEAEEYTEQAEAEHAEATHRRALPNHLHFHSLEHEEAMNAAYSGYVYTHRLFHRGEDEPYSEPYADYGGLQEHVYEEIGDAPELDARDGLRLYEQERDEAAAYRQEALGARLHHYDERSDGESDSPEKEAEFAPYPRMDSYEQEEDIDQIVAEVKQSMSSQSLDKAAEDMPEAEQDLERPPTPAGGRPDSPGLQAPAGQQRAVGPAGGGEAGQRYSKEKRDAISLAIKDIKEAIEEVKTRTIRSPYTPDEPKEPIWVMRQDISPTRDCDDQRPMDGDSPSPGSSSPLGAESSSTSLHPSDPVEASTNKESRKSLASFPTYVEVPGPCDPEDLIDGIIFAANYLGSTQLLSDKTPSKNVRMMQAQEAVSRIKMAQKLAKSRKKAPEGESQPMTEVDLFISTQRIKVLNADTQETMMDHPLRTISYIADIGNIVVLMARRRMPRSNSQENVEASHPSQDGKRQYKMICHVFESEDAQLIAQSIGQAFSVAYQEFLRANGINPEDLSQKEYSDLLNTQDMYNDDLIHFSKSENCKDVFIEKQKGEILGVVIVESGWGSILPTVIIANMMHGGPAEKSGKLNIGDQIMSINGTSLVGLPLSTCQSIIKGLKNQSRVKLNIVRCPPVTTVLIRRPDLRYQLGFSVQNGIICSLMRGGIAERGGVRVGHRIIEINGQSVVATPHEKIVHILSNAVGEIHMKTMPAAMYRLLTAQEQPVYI
Endoplasmic reticulum aminopeptidase 1, sequence (Q9NZ08 whole entry): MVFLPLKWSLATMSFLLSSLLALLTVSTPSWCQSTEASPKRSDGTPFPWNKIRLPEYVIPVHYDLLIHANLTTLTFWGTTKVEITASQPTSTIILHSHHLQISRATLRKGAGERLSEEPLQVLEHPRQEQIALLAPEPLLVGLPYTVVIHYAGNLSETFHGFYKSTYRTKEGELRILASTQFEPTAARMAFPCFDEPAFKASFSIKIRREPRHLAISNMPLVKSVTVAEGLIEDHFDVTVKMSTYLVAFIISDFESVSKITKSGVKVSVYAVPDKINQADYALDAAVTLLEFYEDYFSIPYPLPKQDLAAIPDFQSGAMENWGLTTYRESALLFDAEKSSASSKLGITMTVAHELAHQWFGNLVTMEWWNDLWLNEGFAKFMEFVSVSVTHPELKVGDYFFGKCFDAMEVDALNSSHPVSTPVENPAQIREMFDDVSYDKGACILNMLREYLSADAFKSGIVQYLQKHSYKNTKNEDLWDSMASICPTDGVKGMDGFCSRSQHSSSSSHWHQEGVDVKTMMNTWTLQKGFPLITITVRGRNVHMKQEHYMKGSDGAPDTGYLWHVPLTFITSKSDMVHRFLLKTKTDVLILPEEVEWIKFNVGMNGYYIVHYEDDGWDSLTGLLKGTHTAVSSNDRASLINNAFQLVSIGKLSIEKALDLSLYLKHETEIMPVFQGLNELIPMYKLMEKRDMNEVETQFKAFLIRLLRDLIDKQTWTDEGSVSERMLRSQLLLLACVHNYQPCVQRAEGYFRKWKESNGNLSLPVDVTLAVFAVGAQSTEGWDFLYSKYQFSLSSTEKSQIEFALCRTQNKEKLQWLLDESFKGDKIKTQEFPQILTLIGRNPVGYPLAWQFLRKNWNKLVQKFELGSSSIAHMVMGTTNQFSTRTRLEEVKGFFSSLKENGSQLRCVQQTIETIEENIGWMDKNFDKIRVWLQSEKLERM
Dual specificity protein phosphatase 3, sequence (P51452 whole entry): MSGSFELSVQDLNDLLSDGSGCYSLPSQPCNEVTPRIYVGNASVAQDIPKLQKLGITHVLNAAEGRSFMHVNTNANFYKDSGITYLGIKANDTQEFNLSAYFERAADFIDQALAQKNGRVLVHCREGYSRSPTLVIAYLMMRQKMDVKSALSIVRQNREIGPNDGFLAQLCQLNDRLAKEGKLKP
Intestinal-type alkaline phosphatase, sequence (P09923 whole entry): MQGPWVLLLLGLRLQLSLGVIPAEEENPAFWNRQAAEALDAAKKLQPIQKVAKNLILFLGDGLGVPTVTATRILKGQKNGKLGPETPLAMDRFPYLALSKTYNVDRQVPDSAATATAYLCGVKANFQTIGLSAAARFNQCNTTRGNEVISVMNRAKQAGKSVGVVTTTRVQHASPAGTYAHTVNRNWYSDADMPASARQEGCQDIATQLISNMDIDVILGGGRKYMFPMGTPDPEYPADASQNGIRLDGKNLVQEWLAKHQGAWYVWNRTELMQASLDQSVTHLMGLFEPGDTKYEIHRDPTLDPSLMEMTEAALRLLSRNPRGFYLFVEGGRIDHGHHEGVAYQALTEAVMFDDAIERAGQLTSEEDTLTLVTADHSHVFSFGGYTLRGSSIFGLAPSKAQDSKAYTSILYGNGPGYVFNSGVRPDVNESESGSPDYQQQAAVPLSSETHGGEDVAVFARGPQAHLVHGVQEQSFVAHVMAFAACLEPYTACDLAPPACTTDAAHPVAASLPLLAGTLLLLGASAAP
Nonstructural protein 1, sequence (Q194T2 whole entry): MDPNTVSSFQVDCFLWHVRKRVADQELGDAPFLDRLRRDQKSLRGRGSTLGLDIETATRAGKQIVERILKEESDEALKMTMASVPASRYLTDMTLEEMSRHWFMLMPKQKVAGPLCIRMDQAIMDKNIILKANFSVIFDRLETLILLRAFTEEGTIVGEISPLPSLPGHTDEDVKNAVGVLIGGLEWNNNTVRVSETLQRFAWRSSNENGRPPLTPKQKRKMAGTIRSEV

Take `CC12C=CC(C)(O1)C1C(=O)N(c3ccc(Cl)cc3)C(=O)C12` (stereo unspecified): the IC50 in assay [1] and in assay [2] was > 56.8 µM (inactive) each time.
Turning to `Cc1csc(NC(=O)CSc2nnc3c4ccccc4nc(C(C)(C)C)n23)n1`, on X-box-binding protein 1, the “Absolute IC50 (XBP1)” value came out at 10 µM.
On to `CCN(CCCl)c1cc(CN(C)C)cc(NC(=O)c2ccc(C(=O)Nc3cc(CN(C)C)cc(N(CC)CCCl)c3)cc2)c1`, for which the AC50 is 4.85 µM (active) in assay [3]; 2.65 µM (active) in assay [4]; 13.1 µM (active) in assay [6]; 1.25 µM (active) in assay [8]; 19.4 µM (active) in [9]; 1.71 µM (active) in [11]. For the same compound, the IC50 at Nonstructural protein 1 is 7.89 µM (active); in [5], 126 µM (active). The CC50 is < 0.38 µM (active) in assay [7] and 6.78 µM (active) in [10].
For the compound `N#CC(C#N)=Cc1cccn1S(=O)(=O)c1ccccc1`, the IC50 in assay [12] was 20 µM (inactive).
Turning to `COC(=O)CN1C(=O)C(O)(CC(=O)c2ccc(C)cc2)c2ccccc21` (stereo unspecified), in assay [13], the IC50 was > 100 µM (inactive).
For the compound `CCCCn1c2ccccc2c2nnc(SCCN3CCCCC3)nc21`, the EC50 in assay [14] is 6.68 µM (active).
In the case of `CCOc1ccc(-n2c(Cc3cc(O)nc(O)n3)nnc2SCc2cccnc2)cc1`, the AC50 at ORF 73 is 76.4 µM (active).
With `COc1ccc(C2C3C(=O)N(c4ccccc4)C(=O)C3N3CCCN23)cc1` (stereo unspecified), in [15], the Ki is 112 µM (inactive).
Consider `CC(OC(=O)c1cc(O)c2ccccc2c1O)C(=O)Nc1ccc(C(N)=O)cc1` (stereo unspecified), for which the AC50 in [16] is 5.11 µM (active). Besides, on Protein RecA, the EC50 is 4.51 µM (active). Also, the IC50 on Hexokinase HKDC1 was 52.7 µM (inactive).
